Here are results for one sequence from patent publication US20230201301A1 (priority 2020, published 2023).

In this assay the test system is inflammatory cell-types in the lungs. Also on record: species or system transgenic mice B6.Cg-Tg(K18-ACE2)2Prlmn/J. Particulars: mouse, in vivo, ip.

LQEEDTGEYGCV (TLT-1 peptide) [LR12]: the “CD4+ T cells in lungs vs vehicle” value was “no effect”, the “CD8+ T cells in lungs vs vehicle” value is “no effect”, the “CD45+ cells in lungs vs vehicle” value is “decrease” and the “NK cells in lungs vs vehicle” value was “no effect”. For the same sequence, the “NKT cells in lungs vs vehicle” value was “lower number”, the “number of monocytes-derived macrophages in lungs vs vehicle” value was “lower”, the “number of neutrophils in lungs vs vehicle” value was “lower” and the “total number of cells in lungs vs vehicle” value is recorded as “did not differ”.
